Assay results: patent publication US20230212164A1, “ANNULATED 2-AMINO-3-CYANO THIOPHENES AND DERIVATIVES FOR THE TREATMENT OF CANCER” (BOEHRINGER INGELHEIM INTERNATIONAL GMBH, priority 2020, published 2023)

Assays:
[1] = system: pERK (Thr202/Tyr204) in NCI-H358 (KRAS G12C mutation); test: ERK phosphorylation assay 1 (AlphaLISA SureFire Ultra p-ERK1/2); settings: Homo sapiens, NCI-H358, read-out: IC50 H358 pERK
Description: ERK Phosphorylation Assay
Materials Used for the Assay:
AlphaLISA SureFire Ultra p-ERK1/2 (Thr202/Tyr204) Assay Kit (ALSU-PERK-A500)
The cells are incubated for 1 h at room temperature and then incubated overnight in an incubator at 37° C. and 5% CO2 in a humidified atmosphere. 60 nL compound solution (10 mM DMSO stock solution) is then added using a Labcyte Echo 550 device. […] After 20 minutes of incubation at room temperature with shaking, 6 μL of each lysate sample is transferred to a 384-well Proxiplate and analyzed for pERK (Thr202/Tyr204) with the AlphaLISA SureFire Ultra pERK1/2 (Thr202/Tyr204) Assay Kit. 3 μL Acceptor Mix and 3 μL Donor Mix are added under subdued light and incubated for 2 h at room temperature in the dark, before the signal is measured on a PerkinElmer Envision HTS Multilabel Reader. The raw data were imported into and analyzed with the Boehringer Ingelheim proprietary software MegaLab (curve fitting based on the program PRISM, GraphPad Inc.).

[2] = molecular target: T1, protein-protein interaction between SOS1 and KRAS G12C (Homo sapiens, UniProt P01116, C118S/C51S/C80L/G12C); test: KRAS::SOS1 AlphaScreen binding assay
T1 construct: His6 (N)
T1 sequence (P01116 1-169 isoform P01116-2 G12C/C51S/C80L/C118S): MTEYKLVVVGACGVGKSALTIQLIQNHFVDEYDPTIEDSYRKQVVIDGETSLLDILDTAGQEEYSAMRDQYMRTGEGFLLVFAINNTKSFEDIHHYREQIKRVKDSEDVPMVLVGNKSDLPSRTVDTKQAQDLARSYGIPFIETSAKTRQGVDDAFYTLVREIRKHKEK
Description: KRAS::SOS1 AlphaScreen Binding Assay
Assay buffer: • 1×PBS • 0.1% BSA • 0.05% Tween 20
AlphaLISA Glutathione Acceptor Beads and AlphaScreen Streptavidin Donor Beads are mixed in assay buffer at a concentration of 10 μg/mL (final assay concentration) each prior to use and kept at room temperature.
Compounds are diluted to a final start concentration of 100 μM and are tested in duplicate. […] For compound a start concentration of 100 μM, 150 nL of compound solution is transferred per well in 11 concentrations in duplicate with serial 1:5 dilutions.
The assay is run using a fully automated robotic system in a darkened room below 100 Lux. 10 μL of KRAS::SOS1 GDP mix is added into columns 1-24 to the 150 nL of compound solution (final dilution in the assay 1:100, final DMSO concentration 1%).
After 30 minutes incubation time 5 μL of bead mix is added into columns 1-23. Plates are kept at room temperature in a darkened incubator. After further 60 minutes incubation, the signal is measured using a PerkinElmer Envision HTS Multilabel Reader using the AlphaScreen specifications from PerkinElmer. Each plate contains the following controls: • diluted DMSO+KRAS::SOS1 GDP mix+bead mix • diluted DMSO+KRAS::SOS1 GDP mix
IC50 values are calculated and analyzed using a 4 parametric logistic model.

IC50 [1] | IC50 ([2]; Table 35) | IC50 ([2]; Table 36) | IC50 ([2]; Table 38) | Structure (SMILES)
31.4 nM | 123 nM | – | – | C=CC(=O)N1CCC(c2cc(-c3noc(C4(C)CCCc5sc(N)c(C#N)c54)n3)nc(N3CCN(C)CC3)c2)CC1 (centres unmarked) [Ia-1]
131 nM | 336 nM | – | – | C=CC(=O)N1CCC(c2cc(-c3noc(C4(C)CCCc5sc(N)c(C#N)c54)n3)nc(N3CCN(C4CCCC4)CC3)c2)CC1 (centres unmarked) [Ia-2]
– | – | 622 nM | – | C=CC(=O)N1CCC(Oc2cc(O[C@@H](C)[C@@H]3CCCN3C)nc(-c3noc([C@]4(C)CCCc5sc(N)c(C#N)c54)n3)c2)CC1 [Ia-5]
544 nM | – | 1000 nM | – | C=CC(=O)N1[C@H](C)CN(c2cc(-c3noc(C4(C)CCCc5sc(N)c(C#N)c54)n3)nc(N3CCN(C4CCCC4)CC3)c2)C[C@@H]1C (some centres unmarked) [Ia-8]
54.6 nM | – | 216 nM | – | C=CC(=O)N1C[C@@H]2CN(c3cc(-c4noc(C5(C)CCCc6sc(N)c(C#N)c65)n4)nc(N4CCN(C5CCCC5)CC4)c3)[C@@H]2C1 (some centres unmarked) [Ia-9]
38.5 nM | – | 254 nM | – | C=CC(=O)N1CCN(c2cc(-c3noc(C4(C)CCC(C)c5sc(N)c(C#N)c54)n3)nc(N3CCN(C4CCCC4)CC3)c2)CC1 (centres unmarked) [Ia-10]
12.3 nM | – | 125 nM | – | C=CC(=O)N1CCN(c2cc(-c3noc([C@@]4(C)CC[C@H](C)c5sc(N)c(C#N)c54)n3)nc(N3CCN(C4CCCC4)CC3)c2)CC1 [Ia-11]
13.5 nM | – | 117 nM | – | C=CC(=O)N1CCN(c2cc(-c3noc(C4(C)CCC(C)c5sc(N)c(C#N)c54)n3)nc(N3CCN(C)CC3)c2)CC1 (centres unmarked) [Ia-12]
7.3 nM | – | – | – | C=CC(=O)N1CCN(c2cc(-c3noc([C@]4(C)CCCc5sc(N)c(C#N)c54)n3)nc(N3CCN(C)C[C@@H]3C)c2)CC1 [Ia-13]
2.7 nM | – | – | – | C=CC(=O)N1CCN(c2cc(-c3noc([C@@]4(C)CCCc5sc(N)c(C#N)c54)n3)nc(N3CCN(C)C[C@@H]3C)c2)CC1 [Ia-14]
29.4 nM | – | 260 nM | – | C=CC(=O)N1CCN(c2cc(-c3noc(C4(C)CCCc5sc(N)c(C#N)c54)n3)nc(N3CCN(C4CC4)CC3)c2)CC1 (centres unmarked) [Ia-17]
57.4 nM | – | 364 nM | – | C=CC(=O)N1CCN(c2cc(-c3noc(C4(C)CCCc5sc(N)c(C#N)c54)n3)nc(N3CCN(C4COC4)CC3)c2)CC1 (centres unmarked) [Ia-18]
20.7 nM | – | 130 nM | – | C=CC(=O)N1CCN(c2cc(-c3noc(C4(C)CCCc5sc(N)c(C#N)c54)n3)nc(N3CC[C@H](N4CCCC4)C3)c2)CC1 (some centres unmarked) [Ia-20]
7.4 nM | – | 51 nM | – | C=CC(=O)N1CCN(c2cc(-c3noc(C4(C)CCCc5sc(N)c(C#N)c54)n3)nc(N3C[C@@H](C)N(CC)[C@@H](C)C3)c2)CC1 (some centres unmarked) [Ia-21]
6.7 nM | – | 40 nM | – | C=CC(=O)N1CCN(c2cc(-c3noc(C4(C)CCCc5sc(N)c(C#N)c54)n3)nc(N3CCC(N4CCCCC4)C3)c2)CC1 (centres unmarked) [Ia-22]
6.5 nM | – | 47 nM | – | C=CC(=O)N1CCN(c2cc(-c3noc(C4(C)CCCc5sc(N)c(C#N)c54)n3)nc(N3CCC(N4CCCC4)C3)c2)CC1 (centres unmarked) [Ia-23]
80.1 nM | – | 406 nM | – | C=CC(=O)N1CCN(c2cc(-c3noc(C4(C)CCCc5sc(N)c(C#N)c54)n3)nc(N3CCN(C4CCC(F)(F)CC4)CC3)c2)CC1 (centres unmarked) [Ia-24]
112 nM | – | 186 nM | – | C=CC(=O)N1CCN(c2cc(-c3noc(C4(C)CCCc5sc(N)c(C#N)c54)n3)nc(N3CCN(C)CC34CC4)c2)CC1 (centres unmarked) [Ia-25]
61.6 nM | – | 240 nM | – | C=CC(=O)N1CCN(c2cc(-c3noc(C4CCCc5sc(N)c(C#N)c54)n3)nc(N3CCN(C)CC3)c2)CC1 (centres unmarked) [Ia-27]
785 nM | – | 152 nM | – | C=CC(=O)N1CCN(c2cc(-c3noc(C4(C)CCCc5sc(N)c(C#N)c54)n3)nc(N3CCN(C4CCN(C)CC4)CC3)c2)CC1 (centres unmarked) [Ia-28]
7.8 nM | – | 48 nM | – | C=CC(=O)N1CCN(c2cc(-c3noc(C4(C)CCCc5sc(N)c(C#N)c54)n3)nc(N3CCC(N4CCOCC4)CC3)c2)CC1 (centres unmarked) [Ia-29]
20.1 nM | – | 103 nM | – | C=CC(=O)N1CCC(Oc2cc(-c3noc(C4(C)CCCc5sc(N)c(C#N)c54)n3)nc(N3CCC(N4CCOCC4)CC3)c2)CC1 (centres unmarked) [Ia-30]
– | – | 83 nM | – | C=CC(=O)N1CCN(c2cc(-c3noc(C4(C)CCCc5sc(N)c(C#N)c54)n3)nc(N3CCN(C(C)(C)C)CC3)c2)CC1 (centres unmarked) [Ia-31]
35.6 nM | – | 255 nM | – | C=CC(=O)N1CCN(c2cc(-c3noc(C4(C)CCCc5sc(N)c(C#N)c54)n3)cc(N3CCC(N4CCOCC4)CC3)c2)CC1 (centres unmarked) [Ia-32]
50.4 nM | – | 442 nM | – | C=CC(=O)N1CCN(c2cc(-c3ccncc3)nc(-c3noc(C4(C)CCCc5sc(N)c(C#N)c54)n3)c2)CC1 (centres unmarked) [Ia-33]

IC50 [1] | IC50 ([2]; Table 35) | IC50 ([2]; Table 36) | IC50 ([2]; Table 38) | Structure (SMILES)
12.2 nM | – | 24 nM | – | C=CC(=O)N1CCN(c2cc(-c3noc(C4(C)CCCc5sc(N)c(C#N)c54)n3)nc(N3CCC(N4CCCC4)CC3)c2)CC1 (centres unmarked) [Ia-36]
12.3 nM | – | 47 nM | – | C=CC(=O)N1CCN(c2cc(-c3noc(C4(C)CCCc5sc(N)c(C#N)c54)n3)nc(N3CCC(N4CCCCC4)CC3)c2)CC1 (centres unmarked) [Ia-37]
5.8 nM | – | 22 nM | – | C=CC(=O)N1CCN(c2cc(-c3noc(C4(C)CCCc5sc(N)c(C#N)c54)n3)nc(N3CCC(N4CCC(F)C4)CC3)c2)CC1 (centres unmarked) [Ia-38]
5.3 nM | – | 19 nM | – | C=CC(=O)N1CCN(c2cc(-c3noc(C4(C)CCCc5sc(N)c(C#N)c54)n3)nc(N3CCC(N4CC[C@H](F)C4)CC3)c2)CC1 (some centres unmarked) [Ia-40]
2.8 nM | – | 1.8 nM | – | C=CC(=O)N1CCN(c2cc(-c3noc([C@@]4(C)CCCc5sc(N)c(C#N)c54)n3)nc(N3CCCN(CCCOC)C[C@@H]3C)n2)CC1 [Ia-42]
– | – | 6 nM | – | C=CC(=O)N1CCCN(c2cc(-c3noc([C@@]4(C)CCCc5sc(N)c(C#N)c54)n3)nc(N3CCCN(CCCOC)C[C@@H]3C)n2)CC1 [Ia-45]
10 nM | – | 51 nM | – | C=CC(=O)N1CCN(c2cc(-c3noc(C4(C)CCCc5sc(N)c(C#N)c54)n3)nc(N3CCN(C)CC3)c2)CC1 (centres unmarked) [Ia-87]
– | – | 48 nM | – | C=CC(=O)N1CCN(c2cc(OCCN(C)C)nc(-c3noc(C4(C)CCCc5sc(N)c(C#N)c54)n3)c2)CC1 (centres unmarked) [Ia-89]
– | – | 250 nM | – | C=CC(=O)N1CCN(c2cc(OCCN(C)C)cc(-c3noc(C4(C)CCCc5sc(N)c(C#N)c54)n3)c2)CC1 (centres unmarked) [Ia-90]
11.6 nM | – | 49 nM | – | C=CC(=O)N1CCC(Oc2cc(-c3noc([C@@]4(C)CCCc5sc(N)c(C#N)c54)n3)nc(N3CCN(C)CC3)c2)CC1 [Ia-91]
– | – | 381 nM | – | C=CC(=O)N1CC(CN(C)c2cc(-c3noc([C@@]4(C)CCCc5sc(N)c(C#N)c54)n3)nc(N3CCCN(C)C[C@@H]3C)n2)C1 [Ia-93]
– | – | 799 nM | – | C=CC(=O)N1CCC2(CCN(c3cc(-c4noc([C@@]5(C)CCCc6sc(N)c(C#N)c65)n4)nc(N4CCCN(C)C[C@@H]4C)n3)C2)C1 (some centres unmarked) [Ia-96]
– | – | 117 nM | – | C=CC(=O)N1CC2=C(C1)CN(c1cc(-c3noc([C@@]4(C)CCCc5sc(N)c(C#N)c54)n3)nc(N3CCCN(C)C[C@@H]3C)n1)C2 [Ia-102]
– | – | 143 nM | – | C=CC(=O)N1CCC2C1CCN2c1cc(-c2noc([C@@]3(C)CCCc4sc(N)c(C#N)c43)n2)nc(N2CCCN(C)C[C@@H]2C)n1 (some centres unmarked) [Ia-103]
71.8 nM | – | 635 nM | – | C=CC(=O)N1CCN(c2cc(-c3noc(C4(C)CCC(C)c5sc(N)c(C#N)c54)n3)nc(N3CCN(C)CC3)c2)CC1C (centres unmarked) [Ia-104]
14.4 nM | – | 145 nM | – | C=CC(=O)N1CCN(c2cc(-c3noc(C4(C)CCC(C)c5sc(N)c(C#N)c54)n3)nc(N3CCN(CC)CC3)c2)CC1 (centres unmarked) [Ia-105]
25.2 nM | – | 180 nM | – | C=CC(=O)N1CCN(c2cc(-c3noc(C4(C)CCC(C)c5sc(N)c(C#N)c54)n3)nc(N3CCN(CC4CC4)CC3)c2)CC1 (centres unmarked) [Ia-106]
29.3 nM | – | 198 nM | – | C=CC(=O)N1CCN(c2cc(-c3noc(C4(C)CCCc5sc(N)c(C#N)c54)n3)nc(N3CCN(CC)CC3)c2)CC1C (centres unmarked) [Ia-107]
19.8 nM | – | 182 nM | – | C=CC(=O)N1CCN(c2cc(-c3noc(C4(C)CCCc5sc(N)c(C#N)c54)n3)nc(N3CCN(C)CC3)c2)CC1C (centres unmarked) [Ia-108]
5990 nM | – | 943 nM | – | C=CC(=O)NCC1CN(c2cc(-c3noc(C4(C)CCCc5sc(N)c(C#N)c54)n3)nc(N3CCN(C)CC3)c2)C1 (centres unmarked) [Ia-109]
8.7 nM | – | 76 nM | – | C=CC(=O)N1CCN(c2cc(-c3noc(C4(C)CCCc5sc(N)c(C#N)c54)n3)nc(N3CCN(C(C)C)CC3)c2)CC1 (centres unmarked) [Ia-110]
24.2 nM | – | – | – | C=CC(=O)N1CCN(c2cc(-c3noc([C@@]4(C)CCCc5sc(N)c(C#N)c54)n3)nc(N3CCN(C)C[C@H]3C)c2)CC1 [Ia-119]
– | – | 71 nM | – | C=CC(=O)N1CCN(c2cc(-c3noc(C4(C)CCCc5sc(N)c(C#N)c54)n3)nc(N3CCN(C4CCCC4)CC3)c2)CC1 (centres unmarked) [Ia-147]
– | – | – | 1020 nM | CC#CC(=O)N1CCN(c2cc(-c3noc(C4(C)CCCc5sc(N)c(C#N)c54)n3)nc(N3CCN(C)CC3)c2)CC1 (centres unmarked) [Ia-168]

Structure (SMILES) | IC50 [1] | IC50 ([2]; Table 35) | IC50 ([2]; Table 36) | IC50 ([2]; Table 38)
C=CC(=O)N1CCN(c2cc(-c3noc(C4(C)CCCc5sc(N)c(C#N)c54)n3)nc(N3C4CCC3CN(C)C4)c2)CC1 (centres unmarked) [Ia-16] | 24.6 nM | – | 106 nM | –
